These results are taken from US12209086B2, “FGFR3 inhibitor compounds” (ELI LILLY AND COMPANY, priority 2021, dated 2025).

Structures are written as SMILES. pIC50: −log10 of the molar value. Bounds are passed on as bounds.

T1 sequence (P22607 23-806): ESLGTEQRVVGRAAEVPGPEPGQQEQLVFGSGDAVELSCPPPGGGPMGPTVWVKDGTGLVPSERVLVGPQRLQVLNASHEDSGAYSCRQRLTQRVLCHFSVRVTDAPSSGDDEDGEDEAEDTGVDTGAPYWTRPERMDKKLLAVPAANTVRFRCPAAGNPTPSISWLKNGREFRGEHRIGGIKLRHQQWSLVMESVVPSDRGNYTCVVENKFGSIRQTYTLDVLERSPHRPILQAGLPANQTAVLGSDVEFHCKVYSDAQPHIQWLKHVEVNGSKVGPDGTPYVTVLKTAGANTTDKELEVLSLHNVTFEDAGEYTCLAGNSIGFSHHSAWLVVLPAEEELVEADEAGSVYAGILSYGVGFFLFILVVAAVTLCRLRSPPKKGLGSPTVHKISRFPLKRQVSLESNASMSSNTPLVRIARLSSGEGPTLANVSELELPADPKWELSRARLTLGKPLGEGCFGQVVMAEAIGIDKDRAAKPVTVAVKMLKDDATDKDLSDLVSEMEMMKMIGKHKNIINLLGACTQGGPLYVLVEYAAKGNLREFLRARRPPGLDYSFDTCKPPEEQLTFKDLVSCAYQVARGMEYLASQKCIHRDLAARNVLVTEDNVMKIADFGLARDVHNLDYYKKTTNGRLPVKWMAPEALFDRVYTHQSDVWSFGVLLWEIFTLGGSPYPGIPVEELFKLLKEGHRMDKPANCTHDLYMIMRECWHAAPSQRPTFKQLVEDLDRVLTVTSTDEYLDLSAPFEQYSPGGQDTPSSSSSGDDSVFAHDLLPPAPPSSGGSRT

This experiment has as its target T1, FGFR3 protein (Homo sapiens, UniProt P22607).
T1 construct: purchased Reaction Biology 1068
The experiment can be described thus: FGFR3 enzyme assay (KinEASE-TK HTRF kinase assay). It is filed as biochemical. To be noted: 0.25 nM enzyme, ATP at Km, 15 min pre-incubation on ice, 30 min at 30° C. The procedure:
FGFR3 and FGFR1 Enzyme Assay
Enzyme activity was monitored using the KinEASE™-TK Assay Kit (Cisflio, Cat. No. 62TK0PEC) according to the manufacturer's instructions. All assays were performed at the respective KmATP for each kinase in KinEASE™ Kinase Buffer.
Titration of compounds were performed in a half-log manner in 100% dimethyl sulfoxide (DMSO) starting at 1 uM. Prior to the initiation of the reaction by adenosine triphosphate (ATP), FGFR1 protein and compounds were pre-incubated for 15 minutes at room temperature, and FGFR3 protein and compounds were pre-incubated on ice for 15 minutes. Reactions proceeded for 30 min at 30° C. Plates were quenched by the addition of the Anti-TK cryptate antibody/Streptavidin-XL665 mixture.
Ratios were converted to a percent of control (POC) using a ratiometric emission factor. One hundred POC was determined using no test compound, and 0 POC was determined in the presence of 1 uM of an appropriate control inhibitor.
In general terms: Time-resolved FRET reads energy transfer from a long-lived donor to a nearby acceptor.
What is called pIC50 is −log10 of the IC50, conventionally taken in molar units. Lower therefore signals a high IC50. `COc1cc(-c2cnn(C3CN([C@H]4CCCN(C#N)C4)C3)c2C)cn2ncc(C#N)c12` [Example 215, (3S)-3-[3-(4-[3-Cyano-4-methoxypyrazolo[1,5-a]pyridin-6-yl]-5-methylpyrazol-1-yl)azetidin-1-yl]piperidine-1-carbonitrile] gave a pIC50 of over 7.30. For `Cc1c(-c2cc(OC(C)c3cncc4ccccc34)c3c(C#N)cnn3c2)nnn1C1CCN(C#N)CC1` (stereo not drawn) [Example 24, 6-[1-(1-Cyano-4-piperidyl)-5-methyl-triazol-4-yl]-4-[1-(4-isoquinolyl)ethoxy] pyrazolo[1,5-a] pyridine-3-carbonitrile], the pIC50 was over 7.30. Regarding `Cc1c(-c2cc(O[C@H](C)c3ccccn3)n3c(C#N)cnc3c2)nnn1C1CCN(C#N)CC1` [Example 201, 4-(4-[3-Cyano-5-[(1R)-1-(pyridin-2-yl)ethoxy]imidazo [1,2-a]pyridin-7-yl]-5-methyl-1,2,3-triazol-1-yl)piperidine-1-carbonitrile], the pIC50 is over 7.30. The same measure for `Cc1c(-c2cc(OC(c3ccc(F)cn3)C3(F)CC3)c3c(C#N)cnn3c2)nnn1C1CCN(C#N)CC1` (stereo not drawn) [Example 26, 6-[1-(1-Cyano-4-piperidyl)-5-methyl-triazol-4-yl]-4-[(1-fluorocyclopropyl)-(5-fluoro-2-pyridyl)methoxy]pyrazolo [1,5-a]pyridine-3-carbonitrile]: over 7.30; for `Cc1c(-c2cc(OC(CO)c3ccc(F)cn3)c3c(C#N)cnn3c2)cnn1C1CCN(C#N)CC1` (single isomer, unassigned; isomer 1) [Example 43, 6-[1-(1-Cyano-4-piperidyl)-5-methyl-pyrazol-4-yl]-4-[1-(5-fluoro-2-pyridyl)-2-hydroxy-ethoxy]pyrazolo[1,5-a]pyridine-3-carbonitrile, Isomer 1]: over 7.30; for `COCC(Oc1cc(-c2nnn(C3CCN(C#N)CC3)c2C)cn2ncc(C#N)c12)c1ccc(F)cn1` (single isomer, unassigned; isomer 1) [Example 53, 6-[1-(1-Cyano-4-piperidyl)-5-methyl-triazol-4-yl]-4-[1-(5-fluoro-2-pyridyl)-2-methoxy-ethoxy]pyrazolo[1,5-a]pyridine-3-carbonitrile, Isomer 1]: over 7.30. `COCC(Oc1cc(-c2nnn(C3CCN(C#N)CC3)c2C)cn2ncc(C#N)c12)c1cncc(C(F)(F)F)c1` (single isomer, unassigned; isomer 1) [Example 61, 6-[1-(1-cyano-4-piperidyl)-5-methyl-triazol-4-yl]-4-[2-methoxy-1-[5-(trifluoromethyl)-3-pyridyl]ethoxy]pyrazolo [1,5-a]pyridine-3-carbonitrile, Isomer 1] had a pIC50 of over 7.30. The value for `Cc1c(-c2cc(O[C@H](C)c3ccccn3)n3c(C#N)cnc3c2)nnn1C1CCN(C#N)C(C2CC2)C1` (single isomer, unassigned) [Example 281] was over 7.30; that for `COc1cc(-c2cnn(C3CCN(C4CN(C#N)C4)CC3)c2C)cn2ncc(C#N)c12` [Example 228, 3-[4-(4-[3-Cyano-4-methoxypyrazolo[1,5-a]pyridin-6-yl]-5-methylpyrazol-1-yl)piperidin-1-yl]azetidine-1-carbonitrile] was over 7.30. The same measure for `Cc1c(-c2cc(OC(CO)c3ccc(F)cn3)c3c(Cl)cnn3c2)nnn1[C@H]1C[C@@H](N2CC3COCC(C2)N3C#N)C1` (single isomer, unassigned) [Example 280]: over 7.30; for `Cc1c(-c2cc(OC(C)c3cccc4cnsc34)c3c(C#N)cnn3c2)nnn1C1CCN(C#N)CC1` (single isomer, unassigned; isomer 1) [Example 79, 4-[1-(1,2-benzothiazol-7-yl)ethoxy]-6-[1-(1-cyano-4-piperidyl)-5-methyl-triazol-4-yl]pyrazolo[1,5-a]pyridine-3-carbonitrile, Isomer 1]: over 7.30; for `Cc1c(-c2cc(OCC(O)c3ccc(F)cn3)c3c(Cl)cnn3c2)nnn1C1CCN(C#N)CC1` (single isomer, unassigned) [Example 155, 4-[4-[3-Chloro-4-[2-(5-fluoro-2-pyridyl)-2-hydroxy-ethoxy]pyrazolo[1,5-a]pyridin-6-yl]-5-methyl-triazol-1-yl]piperidine-1-carbonitrile]: over 7.30. Consider `Cc1c(-c2cc(O[C@H](C)c3ccc(F)cn3)n3c(C#N)cnc3c2)cnn1C1CCN(C#N)CC1` [Example 209], for which the negative-log IC50 (pIC50) is over 7.30. In turn, `Cc1c(-c2cc(O[C@H](C)c3ccccc3C#N)c3c(Cl)cnn3c2)cnn1C1CCN(C#N)CC1` [Example 297, 4-[4-[3-Chloro-4-[(1R)-1-(2-cyanophenyl)ethoxy]pyrazolo[1,5-a]pyridin-6-yl]-5-methyl-pyrazol-1-yl]piperidine-1-carbonitrile] showed a pIC50 of over 7.30. For the compound `Cc1c(-c2cc(O[C@H](C)c3ccc(F)cn3)n3c(C#N)cnc3c2)nnn1C1CCN(C#N)CC1` [Example 170, 4-(4-[3-Cyano-5-[(1R)-1-(5-fluoropyridin-2-yl)ethoxy]imidazo[1,2-a]pyridin-7-yl]-5-methyl-1,2,3-triazol-1-yl)piperidine-1-carbonitrile], the pIC50 is over 7.30. The value for `COc1cc(-c2cnn([C@H]3C[C@H]4CC[C@@H](C3)N4C#N)c2C)cn2ncc(C#N)c12` [Example 183, 6-(1-((1R,3r,5S)-8-Cyano-8-azabicyclo[3.2.1]octan-3-yl)-5-methyl-1H-pyrazol-4-yl)-4-methoxypyrazolo[1,5-a]pyridine-3-carbonitrile] was over 7.30.

Take `COc1cc(-c2cnn(C3CC4(CCN(C#N)CC4)C3)c2C)cn2ncc(C#N)c12` [Example 171, 2-(4-[3-Cyano-4-methoxypyrazolo[1,5-a]pyridin-6-yl]-5-methylpyrazol-1-yl)-7-azaspiro[3.5]nonane-7-carbonitrile]: the pIC50 was over 7.30. `Cc1c(-c2cc(OC(C)c3cc(Cl)cnn3)c3c(C#N)cnn3c2)nnn1C1CCN(C#N)CC1` (single isomer, unassigned; isomer 1) [Example 68, 4-[1-(5-Chloropyridazin-3-yl)ethoxy]-6-[1-(1-cyano-4-piperidyl)-5-methyl-triazol-4-yl]pyrazolo[1,5-a]pyridine-3-carbonitrile, Isomer 1] had a pIC50 of over 7.30. The compound `COc1cc(-c2cnn(C3CN([C@@H]4CCN(C#N)C4)C3)c2C)cn2ncc(C#N)c12` [Example 222, (3R)-3-[3-(4-[3-Cyano-4-methoxypyrazolo[1,5-a]pyridin-6-yl]-5-methylpyrazol-1-yl)azetidin-1-yl]pyrrolidine-1-carbonitrile] showed a pIC50 of over 7.30. Consider `Cc1c(-c2cc(O[C@H](C)c3ccccn3)n3c(C#N)cnc3c2)cnn1C1CN(C2CC3CCC2N3C#N)C1` (stereo partly drawn) [Example 226, 7-[1-[1-(7-Cyano-7-azabicyclo[2.2.1]heptan-2-yl)azetidin-3-yl]-5-methyl-pyrazol-4-yl]-5-[(1R)-1-(2-pyridyl)ethoxy]imidazo [1,2-a]pyridine-3-carbonitrile], for which the negative logarithm of the IC50 (pIC50) was over 7.30.

As to `Cc1c(-c2cc(O[C@H](C)c3ccccn3)n3c(C#N)cnc3c2)nnn1C1CC2(CCN(C#N)CC2)C1` [Example 212, 7-[1-(7-Cyano-7-azaspiro[3.5]nonan-2-yl)-5-methyl-triazol-4-yl]-5-[(1R)-1-(2-pyridyl)ethoxy]imidazo [1,2-a]pyridine-3-carbonitrile], the pIC50 was over 7.30. Take `Cc1c(-c2cc(N[C@H](C)c3ccccn3)c3c(C#N)cnn3c2)cnn1C1CCN(C2CN(C#N)C2(C)C)CC1` (single isomer, unassigned) [Example 94]: the pIC50 was over 7.30. For `Cc1nc([C@@H](C)Oc2cc(-c3nnn(C4CCN(C#N)CC4)c3C)cn3ncc(C#N)c23)cs1` [Example 291, 6-[1-(1-Cyano-4-piperidyl)-5-methyl-triazol-4-yl]-4-[(1R)-1-(2-methylthiazol-4-yl)ethoxy]pyrazolo [1,5-a]pyridine-3-carbonitrile], the pIC50 is over 7.30. Compound `Cc1c(-c2cc(OC(C)c3ccccc3C(=O)N(C)C)c3c(C#N)cnn3c2)nnn1C1CCN(C#N)CC1` (single isomer, unassigned; isomer 2) [Example 75, 2-[1-[3-cyano-6-[1-(1-cyano-4-piperidyl)-5-methyl-triazol-4-yl]pyrazolo[1,5-a]pyridin-4-yl]oxyethyl]-N,N-dimethyl-benzamide, Isomer 2] showed a negative-log IC50 (pIC50) of over 7.00. As to `Cc1c(-c2cc(O[C@H](C)c3ccn(C)n3)c3c(C#N)cnn3c2)nnn1C1CCN(C#N)CC1` [Example 292, 6-[1-(1-Cyano-4-piperidyl)-5-methyl-triazol-4-yl]-4-[(1R)-1-(1-methylpyrazol-3-yl)ethoxy]pyrazolo [1,5-a]pyridine-3-carbonitrile], the negative-log IC50 (pIC50) is over 7.30. In turn, `Cc1c(-c2cc(OC(CF)c3ccc(F)cn3)c3c(C#N)cnn3c2)nnn1C1CCN(C#N)CC1` (stereo not drawn) [Example 22, 6-[1-(1-Cyano-4-piperidyl)-5-methyl-triazol-4-yl]-4-[2-fluoro-1-(5-fluoro-2-pyridyl)ethoxy]pyrazolo [1,5-a]pyridine-3-carbonitrile] showed a pIC50 of over 7.30. The compound `Cc1c(-c2cc(OC(C)c3ccccc3-c3ccon3)n3c(C#N)cnc3c2)nnn1C1CCN(C#N)CC1` (single isomer, unassigned) [Example 142, 7-[1-(1-Cyano-4-piperidyl)-5-methyl-triazol-4-yl]-5-[1-(2-isoxazol-3-ylphenyl)ethoxy] imidazo [1,2-a]pyridine-3-carbonitrile] gave a pIC50 of over 7.00.
